Activity, K and MIC data for two compounds are collected here from ChEMBL document CHEMBL5360614, “Quinoline Thiourea-Based Zinc Ionophores with Antibacterial Activity” (J Med Chem, 2023).

Calls of active or inactive are those of the source. No cut-off for these calls is given here.

The test system of series [1] is Staphylococcus aureus. In words: Bactericidal activity against Staphylococcus aureus MTCC-96 at 2 times MIC incubated for 2 hrs in presence of ZnCl2 by time kill assay. Format: functional, organism-based.
The subject of another series is Lipid bilayer. In words: Induction of ionophore activity across EYPC:CHOL (8:2) large unilamellar vesicles assessed as transmembrane Zn2+ ion transport by measuring decrease in fluorescence intensity for HPTS dye upto 25 uM preincubated for 3 mins followed by ZnCl2 addition and mesured after 7.5 mins by HPTS dye based fluorescence spectrophotometric analysis. The following applies: filed as opener, time 10.5 min.

Series [2] can be described thus: Binding affinity to Zn2+ ion assessed as binding constant by Benesi-Hildebrand equation analysis. The following applies: […].
The next series deals with Cell membrane. In words: Induction of ionophore activity across Staphylococcus aureus MTCC-96 cell membrane assessed as AQZ directed Zn2+ ion transport by measuring increase in AQZ fluorescence intensity in presence of ZnCl2 and 2-((2-(2-hydroxyethoxy)ethyl)-amino)-N-(quinolin-8-yl)acetamide by fluorescence analysis. Format: subcellular. The following applies: filed as opener.

The subject of series [3] is Staphylococcus aureus. Nature of the series: Bactericidal activity against Staphylococcus aureus MTCC-96 at 2 times MIC incubated for 1 hrs in presence of ZnCl2 by time kill assay. In kind it is functional, organism-based.
Series [4] relates to Staphylococcus aureus. Nature of the series: Bactericidal activity against Staphylococcus aureus MTCC-96 at 2 times MIC incubated for 1 hrs by time kill assay. Format: functional, organism-based.
Another series relates to PBMC. Nature of the series: Cytotoxicity against human PBMC cells assessed as reduction in cell viability at 12.5 to 200 uM incubated for 24 hrs by MTT assay. Format: toxicity, cell-based. The following applies: dose 12.5-200 µM.
In series [5] the test system is Staphylococcus aureus. In words: In vivo antibacterial activity against Staphylococcus aureus MTCC-96 infected in Balb/c mouse assessed as bacterial load by measuring CFU in liver at 156.5 microM/Kg, iv for 7 days by CFU assay (Rvb= 719 CFU). In kind it is functional. The following applies: time 7 day.
For series [6], the system named is Staphylococcus aureus. Nature of the series: In vivo antibacterial activity against Staphylococcus aureus MTCC-96 infected in Balb/c mouse assessed as bacterial load by measuring CFU in spleen at 156.5 microM/Kg, iv for 7 days by CFU assay. The following applies: time 7.0 day. In kind it is functional, organism-based.
For series [7], the system named is Staphylococcus aureus. Nature of the series: In vivo antibacterial activity against Staphylococcus aureus MTCC-96 infected in Balb/c mouse assessed as reduction in bacterial load by measuring CFU in spleen at 31.6 microM/Kg, iv for 7 days in presence of ZnCl2 by CFU assay. In kind it is functional, organism-based. The note with it: time 7.0 day.
The subject of series [8] is Staphylococcus aureus. Nature of the series: In vivo antibacterial activity against Staphylococcus aureus MTCC-96 infected in Balb/c mouse assessed as less dilated portal vein in liver at 156.5 microM/Kg, iv for 7 days by hematoxylin and eosin staining based microscopic analysis. In kind it is functional, organism-based. The following applies: time 7.0 day.
Series [9] deals with Staphylococcus aureus. In words: In vivo antibacterial activity against Staphylococcus aureus MTCC-96 infected in Balb/c mouse assessed as less dilated hepatic artery at 156.5 microM/Kg, iv for 7 days by hematoxylin and eosin staining based microscopic analysis. Format: functional, organism-based. The note with it: time 7.0 day.
The test system of series [10] is Staphylococcus aureus. Nature of the series: In vivo antibacterial activity against Staphylococcus aureus MTCC-96 infected in Balb/c mouse assessed as liver central vein with minimum infiltration at 156.5 microM/Kg, iv for 7 days by hematoxylin and eosin staining based microscopic analysis. Format: functional, organism-based. The note with it: time 7.0 day.
The subject of series [11] is Staphylococcus aureus. Nature of the series: In vivo antibacterial activity against Staphylococcus aureus MTCC-96 infected in Balb/c mouse assessed as hepatocyte distribution at 156.5 microM/Kg, iv for 7 days by hematoxylin and eosin staining based microscopic analysis. Format: functional, organism-based. The note with it: time 7.0 day.
In series [12] the test system is Staphylococcus aureus. Nature of the series: In vivo antibacterial activity against Staphylococcus aureus MTCC-96 infected in Balb/c mouse assessed as normal architecture of portal vein in liver tissue at 31.6 microM/Kg, iv for 7 days in presence of ZnCl2 by hematoxylin and eosin staining based microscopic analysis. Format: functional, organism-based. The note with it: time 7.0 day.

Series [13] concerns Staphylococcus aureus. In words: In vivo antibacterial activity against Staphylococcus aureus MTCC-96 infected in Balb/c mouse assessed as uniform distribution of hepatocytes in liver tissue at 31.6 microM/Kg, iv for 7 days in presence of ZnCl2 by hematoxylin and eosin staining based microscopic analysis. In kind it is functional, organism-based. The following applies: time 7.0 day.

The test system of series [14] is Staphylococcus aureus. Nature of the series: In vivo antibacterial activity against Staphylococcus aureus MTCC-96 infected in Balb/c mouse assessed as uniform distribution of hepatocytes in liver tissue at 156.5 microM/Kg, iv for 7 days by hematoxylin and eosin staining based microscopic analysis. Format: functional, organism-based. The following applies: time 7.0 day.

The subject of series [15] is Staphylococcus aureus. Nature of the series: In vivo antibacterial activity against Staphylococcus aureus MTCC-96 infected in Balb/c mouse assessed as uniform distribution of hepatic lobules in liver tissue at 156.5 microM/Kg, iv for 7 days by hematoxylin and eosin staining based microscopic analysis. The following applies: time 7.0 day. In kind it is functional, organism-based.

In series [16] the test system is Staphylococcus aureus. In words: In vivo antibacterial activity against Staphylococcus aureus MTCC-96 infected in Balb/c mouse assessed as uniform distribution of sinusoids in liver tissue at 156.5 microM/Kg, iv for 7 days by hematoxylin and eosin staining based microscopic analysis. In kind it is functional, organism-based. The note with it: time 7.0 day.
Series [17] concerns Staphylococcus aureus. Nature of the series: In vivo antibacterial activity against Staphylococcus aureus MTCC-96 infected in Balb/c mouse assessed as normal morphology of spleen tissue at 156.5 microM/Kg, iv for 7 days by hematoxylin and eosin staining based microscopic analysis. In kind it is functional, organism-based. The note with it: time 7.0 day.
In series [18] the test system is Staphylococcus aureus. In words: In vivo antibacterial activity against Staphylococcus aureus MTCC-96 infected in Balb/c mouse assessed as normal morphology of spleen tissue at 31.6 microM/Kg, iv for 7 days in presence of ZnCl2 by hematoxylin and eosin staining based microscopic analysis. In kind it is functional, organism-based. The note with it: time 7.0 day.

Series [19] has as its system Staphylococcus aureus. Nature of the series: Antibacterial activity against gentamicin-and methicillin-resistant Staphylococcus aureus ATCC 33592 assessed as reduction in bacterial growth incubated for 14 to 16 hrs in presence of 100 uM ZnCl2 by microbroth dilution method. The note with it: time 14-16 hrs. In kind it is functional.
For series [20], the system named is Staphylococcus aureus. Nature of the series: Antibacterial activity against gentamicin-and methicillin-resistant Staphylococcus aureus ATCC 33592 assessed as reduction in bacterial growth incubated for 14 to 16 hrs in presence of 200 uM ZnCl2 by microbroth dilution method. In kind it is functional. The following applies: time 14-16 hrs.
For series [21], the system named is Staphylococcus aureus. Nature of the series: Antibacterial activity against gentamicin-and methicillin-resistant Staphylococcus aureus ATCC 33592 assessed as reduction in bacterial growth incubated for 14 to 16 hrs in presence of 400 uM ZnCl2 by microbroth dilution method. Format: functional. The following applies: time 14-16 hrs.

`FC(F)(F)c1cc(NC(=S)Nc2cccc3cccnc23)cc(C(F)(F)F)c1`: the result in the series on Staphylococcus aureus [1] was Active.
As to `FC(F)(F)c1cc(NC(=S)Nc2cccc3ccc(-n4cnc5ccccc54)nc23)cc(C(F)(F)F)c1`, the result in the series with Lipid bilayer, in the series with Cell membrane, in the series on Staphylococcus aureus [3], in the series on Staphylococcus aureus [4], in the series on Staphylococcus aureus [6] and in the series with Staphylococcus aureus [7] was Active. For the same compound, the outcome with Staphylococcus aureus [8], with Staphylococcus aureus [9], in the series on Staphylococcus aureus [10], with Staphylococcus aureus [11], with Staphylococcus aureus [12] and in the series with Staphylococcus aureus [13] was Active. For the same compound, the outcome with Staphylococcus aureus [14], in the series with Staphylococcus aureus [15], in the series on Staphylococcus aureus [16], in the series on Staphylococcus aureus [17] and in the series on Staphylococcus aureus [18] was Active. In [2], the K was 1.36 10^3/M. Moreover, the Activity entry in the series with PBMC was “Non-Toxic”; in the series on Staphylococcus aureus [5], 46 CFU. The minimal inhibitory concentration (MIC) in the series with Staphylococcus aureus [19] was found to be 3.13 µM; in the series with Staphylococcus aureus [20] it was 2 µM; in the series on Staphylococcus aureus [21] it was 2 µM.
